Assay results as given in ChEMBL document CHEMBL5226284, “Small Molecule Inhibitors Targeting Biosynthesis of Ceramide, the Central Hub of the Sphingolipid Network” (J Med Chem, 2021).

Experiments:
[1] = target: T1, Sphingomyelin phosphodiesterase 2 (Mus musculus, UniProt O70572); experiment: Inhibition of mouse nSMase
T1 sequence (O70572 whole entry): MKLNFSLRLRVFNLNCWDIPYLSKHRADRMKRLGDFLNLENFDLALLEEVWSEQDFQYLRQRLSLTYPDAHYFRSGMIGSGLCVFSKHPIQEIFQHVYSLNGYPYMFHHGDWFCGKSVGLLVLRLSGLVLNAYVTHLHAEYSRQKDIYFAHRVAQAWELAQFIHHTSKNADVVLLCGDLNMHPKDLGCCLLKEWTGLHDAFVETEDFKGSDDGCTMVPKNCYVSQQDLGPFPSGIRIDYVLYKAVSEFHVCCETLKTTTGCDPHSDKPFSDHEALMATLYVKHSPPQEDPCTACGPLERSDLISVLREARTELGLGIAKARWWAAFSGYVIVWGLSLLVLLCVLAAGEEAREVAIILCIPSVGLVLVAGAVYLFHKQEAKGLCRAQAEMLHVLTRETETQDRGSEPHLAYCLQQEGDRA

[2] = Inhibition of rat brain aSMase using HMU-PC as substrate incubated for 3 hrs by fluorescence based analysis; assay type: tissue-based
[3] = target: Sphingomyelin phosphodiesterase 2 (Mus musculus) (UniProt O70572); experiment: Inhibition of nSMase in mouse Splenocyte at 1 uM relative to control; assay type: cell-based
[4] = Inhibition of CerS human HCT-116 cells microsomal fraction assessed as reduction in C24 dihydroceramide synthesis by LC-MS/MS analysis; assay type: microsomes, Microsome
[5] = Inhibition of CerS human HCT-116 cells microsomal fraction assessed as reduction in C24:1 dihydroceramide synthesis by LC-MS/MS analysis; assay type: microsomes, Microsome
[6] = Inhibition of CerS human HCT-116 cells microsomal fraction assessed as reduction in C18 dihydroceramide synthesis by LC-MS/MS analysis; assay type: microsomes, Microsome
[7] = Inhibition of CerS human HCT-116 cells microsomal fraction assessed as reduction in C16 dihydroceramide synthesis by LC-MS/MS analysis; assay type: microsomes, Microsome
[8] = target: T2, Sphingomyelin phosphodiesterase 2 (Rattus norvegicus, UniProt Q9ET64); experiment: Inhibition of rat brain microsomes nSMase; design: species or system Microsome
T2 sequence (Q9ET64 whole entry): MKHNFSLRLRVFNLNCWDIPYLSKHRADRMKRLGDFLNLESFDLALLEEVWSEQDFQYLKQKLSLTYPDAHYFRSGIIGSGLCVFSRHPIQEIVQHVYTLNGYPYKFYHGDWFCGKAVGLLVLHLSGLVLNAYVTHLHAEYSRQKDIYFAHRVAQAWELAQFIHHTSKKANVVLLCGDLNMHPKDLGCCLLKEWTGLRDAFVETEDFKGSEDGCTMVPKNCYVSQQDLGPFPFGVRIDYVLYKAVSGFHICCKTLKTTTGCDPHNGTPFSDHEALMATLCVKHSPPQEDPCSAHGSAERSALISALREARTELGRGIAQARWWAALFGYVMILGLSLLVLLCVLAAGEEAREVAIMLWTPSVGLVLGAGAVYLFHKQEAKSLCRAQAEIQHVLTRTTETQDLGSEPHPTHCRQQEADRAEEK

[9] = target: T3, Sphingolipid delta(4)-desaturase DES1 (Rattus norvegicus, UniProt Q5XIF5); experiment: Inhibition of rat liver microsome DES1 incubated for 20 min in presence of NADH by liquid scintillation counter method; assay type: microsomes
T3 sequence (Q5XIF5 whole entry): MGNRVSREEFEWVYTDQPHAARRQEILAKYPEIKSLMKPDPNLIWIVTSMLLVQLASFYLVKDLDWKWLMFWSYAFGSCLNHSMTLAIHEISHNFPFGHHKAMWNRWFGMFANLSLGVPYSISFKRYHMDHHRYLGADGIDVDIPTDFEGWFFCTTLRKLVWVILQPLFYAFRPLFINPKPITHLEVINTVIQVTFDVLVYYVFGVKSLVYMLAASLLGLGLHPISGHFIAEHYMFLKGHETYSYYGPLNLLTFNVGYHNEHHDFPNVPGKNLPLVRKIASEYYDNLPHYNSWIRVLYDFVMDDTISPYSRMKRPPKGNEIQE

[10] = target: T4, Ceramide synthase 1 (Homo sapiens) (UniProt P27544); experiment: Inhibition of CerS1 (unknown origin) at 10 uM relative to control
T4 sequence (whole entry): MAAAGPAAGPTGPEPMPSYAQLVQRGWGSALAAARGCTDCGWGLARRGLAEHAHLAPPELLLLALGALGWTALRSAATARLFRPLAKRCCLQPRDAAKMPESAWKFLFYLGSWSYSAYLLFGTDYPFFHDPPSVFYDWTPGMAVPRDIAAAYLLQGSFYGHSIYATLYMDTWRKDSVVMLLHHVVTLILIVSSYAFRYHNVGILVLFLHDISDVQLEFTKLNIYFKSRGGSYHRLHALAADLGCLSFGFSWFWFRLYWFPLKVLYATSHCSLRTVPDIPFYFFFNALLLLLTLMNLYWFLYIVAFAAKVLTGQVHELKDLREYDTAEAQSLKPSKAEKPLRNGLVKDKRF

[11] = target: Sphingomyelin phosphodiesterase 3 (Homo sapiens) (UniProt Q9NY59); experiment: Inhibition of nSMase2 (unknown origin) at 50 uM relative to control
[12] = target: T5, Sphingomyelin phosphodiesterase 2 (Rattus norvegicus) (UniProt Q9ET64); experiment: Inhibition of rat brain microsomes nSMase at 200 uM measured after 90 mins relative to control; settings: Microsome
T5 sequence (whole entry): T2 sequence (Q9ET64 whole entry)

Sphingomyelinase C = target: T6, Sphingomyelinase C (Bacillus cereus, UniProt P11889); experiment: Inhibition of Bacillus cereus SMaseC
T6 sequence (P11889 whole entry): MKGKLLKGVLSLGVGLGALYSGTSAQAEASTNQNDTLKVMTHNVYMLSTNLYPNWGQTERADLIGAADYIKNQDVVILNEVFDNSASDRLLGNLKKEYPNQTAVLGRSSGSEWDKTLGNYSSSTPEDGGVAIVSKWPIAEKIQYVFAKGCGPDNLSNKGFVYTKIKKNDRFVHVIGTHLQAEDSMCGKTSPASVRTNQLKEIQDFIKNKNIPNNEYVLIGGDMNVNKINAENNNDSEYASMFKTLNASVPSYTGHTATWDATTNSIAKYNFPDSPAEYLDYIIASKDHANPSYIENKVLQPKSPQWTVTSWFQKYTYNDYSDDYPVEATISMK

[13] = target: T5, Sphingomyelin phosphodiesterase 2 (Rattus norvegicus); experiment: Inhibition of rat brain microsomes nSMase at 350 uM measured after 15 mins relative to control; settings: Microsome
Bos taurus = species: Bos taurus; experiment: Inhibition of bovine brain microsomes nSMase measured after 60 mins relative to control; settings: Microsome
[14] = target: T5, Sphingomyelin phosphodiesterase 2 (Rattus norvegicus); experiment: Inhibition of rat brain microsomes nSMase at 100 uM relative to control; settings: Microsome
[15] = Inhibition of rat brain aSMase using HMU-PC as substrate incubated for 3 hrs by fluorescence plate reader assay; assay type: tissue-based

Chain of Sphingomyelin phosphodiesterase 3 (Homo sapiens) (Q9NY59 whole entry): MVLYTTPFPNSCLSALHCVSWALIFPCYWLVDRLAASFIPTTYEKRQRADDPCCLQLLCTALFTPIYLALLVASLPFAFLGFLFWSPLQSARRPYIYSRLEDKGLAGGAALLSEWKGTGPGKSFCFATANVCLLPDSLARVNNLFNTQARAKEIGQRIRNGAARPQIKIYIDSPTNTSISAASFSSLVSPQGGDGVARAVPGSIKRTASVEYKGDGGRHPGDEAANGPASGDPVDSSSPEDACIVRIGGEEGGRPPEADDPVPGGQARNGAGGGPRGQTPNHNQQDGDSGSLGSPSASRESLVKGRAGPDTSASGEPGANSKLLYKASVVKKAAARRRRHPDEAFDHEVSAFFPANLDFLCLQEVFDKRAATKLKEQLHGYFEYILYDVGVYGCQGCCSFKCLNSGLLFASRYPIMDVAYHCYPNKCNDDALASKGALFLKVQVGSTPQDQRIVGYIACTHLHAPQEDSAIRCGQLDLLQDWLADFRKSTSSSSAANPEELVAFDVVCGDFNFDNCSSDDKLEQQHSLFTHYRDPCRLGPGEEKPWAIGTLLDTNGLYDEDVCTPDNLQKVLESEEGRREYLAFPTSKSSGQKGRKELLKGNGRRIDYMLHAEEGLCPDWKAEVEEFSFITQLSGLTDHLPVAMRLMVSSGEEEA

CCOc1ccc(OCC)c(NC(=O)C2=C(C)NC(=S)NC2c2ccc(N(CC)CC)cc2)c1 (centres undefined)
IC50 [1]: 0.86 µM

CCOS(=O)(=O)O[C@@H]1[C@H](O)[C@H](OP(=O)(O)O)[C@@H](O)[C@H](OP(=O)(O)O)[C@H]1O
IC50 [2]: > 100 µM

S=c1[nH]nc(Nc2ccc(Cl)cc2)n1-c1ccc(Cl)cc1
IC50 [1]: 2.4 µM

N=C(N)N/N=C/c1ccc(Oc2cccc(OCc3ccccc3)c2)cc1
inhibition [3]: 80%

CCCCCCCOc1ccc(CCC(CO)(CO)NC(=O)CCCc2ccccc2)cc1
IC50 [4]: 81.3 µM
IC50 [5]: 61.3 µM
IC50 [6]: 26.9 µM
IC50 [7]: 50.4 µM

CC(C)(O)/C=C/C1=CC(=O)C=CC1=O
IC50 [8]: 4.2 µM

CCN(CC)c1ccc(C2NC(=S)NC(C)=C2C(=O)Nc2ccccc2OC)cc1 (centres undefined)
IC50 [1]: 0.9 µM

CC1=C(/C=C/C(C)=C/C=C/C(C)=C/C(=O)Nc2ccc(O)cc2)C(C)(C)CCC1=O
IC50 [9]: 1.68 µM

C[C@@](N)(CO)CCc1ccc(OCc2ccccc2)cc1
inhibition [10]: 76%

CCCCCCCCc1ccc(CCC(CO)(CO)NCC)cc1
IC50 [4]: 60.6 µM
IC50 [6]: 50.7 µM
IC50 [7]: 25.7 µM

CN1c2ccc(OC(=O)Nc3ccccc3)nc2[C@]2(C)CCO[C@H]12
inhibition [11]: 60%

CCCCCCCCCC(=O)N[C@H](C)C(=O)NC1=CC2(CO2)C(=O)C=C1 (some centres undefined)
inhibition [12]: 33%

CCCCCCCCC/C=N/NC(=N)N
IC50 [8]: 8.2 µM

CCCCCCC[C@@H](O)[C@H](CCP(=O)([O-])OCC[N+](C)(C)C)NC(=O)CCCCC
IC50 (Sphingomyelinase C): 120 µM

CCCCCCOS(=O)(=O)O[C@@H]1[C@H](O)[C@H](OP(=O)(O)O)[C@@H](O)[C@H](OP(=O)(O)O)[C@H]1O
IC50 [2]: 43 µM

CC(C)(O)C(O)Cc1cc(O)ccc1O (centres undefined)
IC50 [8]: 34 µM

CC(C)(O)/C=C/c1cc(O)ccc1O
IC50 [8]: 17 µM

CCCCCCCCCC(=O)N[C@H](CO)C(=O)NC1=CC2(CO2)C(=O)C=C1 (some centres undefined)
inhibition [12]: 80%

CCCCOc1ccc(CC[C@](C)(N)CO)cc1
inhibition [10]: 16%

C/C=C/C=C/C(=O)N[C@@H](CO)[C@H]1C=C(CCCCCC)C(=O)O1
inhibition [13]: 50%
inhibition (Bos taurus): 90%

COc1c(O)c(C)c(C/C=C(\C)CC/C=C(\C)CC/C=C(\C)CC/C=C(\C)CC/C=C(\C)CCC=C(C)C)c(O)c1OC
inhibition [14]: > 90%

COC(C)(C)/C=C/c1cc(O)ccc1O
IC50 [8]: 16 µM

CCCCCCCCCC(O)(P(=O)(O)O)P(=O)(O)O
IC50 [15]: 0.08 µM
